Results from patent US12582649B2, “Compositions and methods for hair follicle regeneration” (Washington University, priority 2020, dated 2026).
“Also recorded” adds a separate entry of the source.

How the values were obtained:
hair follicles [1] = assay: Topical application on tape-stripped shaved back skin, hair growth; type: in vivo, mice
Excerpt: FIG. 10. […] Images were taken on day 12 after GSK101 treatment.
A TRPV4-dependent increase in hair growth was observed (FIG. 10).
Tape stripping was used to remove the stratum corneum to facilitate GSK101 entry into the skin. The agent can be applied with no additional agent or skin treatment method. The effect was removed by genetic ablation of the TRPV4 function.

[2] = tested on: cultured human hair follicles; conditions: cultured human hair follicles ex vivo; cited from earlier work
[3] = tested on: hair follicle keratinocytes; assay: Ki67 immunofluorescence staining of back skin sections (proliferation of hair follicle keratinocytes and stem cells); type: in vivo; conditions: Trpv4+/+ mice, 48 h after single intradermal injection, vs vehicle
Method: (§1) The second telogen of C57BL/6J mice starts at day 49 after birth and it will last around 5 weeks (Muller-Rover et al., 2001). On day 48 after birth, the mice were shaved. On day 49 after birth, wt and Trpv4^−/− mice were intradermally injected with 30-μM GSK1016790A (GSK101, a selective TRPV4 agonist) (50 μl), which is diluted in saline from the 100 mM stock solution. GSK2193874 (GSK219, a selective TRPV4 antagonist) (25 mg·kg^−1, 200 μl dilution in saline from 50 mg·ml^−1 stock solution) (Thorneloe et al., 2012) or PD98059 (10 mg·kg^−1, 200 μl dilution in saline from 37.5 mg·ml^−1 stock solution) was applied through intraperitoneal injection on day 48 after birth or 1 hour prior to GSK1016790A injection. Insulin syringes with 30-G needle (UltiCare) were used for intradermal injection and 1-ml Sub-Q syringes with 26-G needle (BD) were used for intraperitoneal injection. […] In mice with newly generated hair, generally, there was a small patch of skin with dark color and longer hair shaft at the injection sites compared with that in the surrounding area.
Dorsal skin samples were fixed overnight at 4° C. in Zamboni's fixative (2% paraformaldehyde, 15% [v/v] saturated picric acid, 0.1-M PB, pH 7.3), dehydrated in ethanol, embedded in paraffin and sectioned at 10 μm. […]

ERK1/2 = ERK1/2 phosphorylation in skin (western blot, immunofluorescence); type: in vivo, mice; conditions: for effect of pretreatment on GSK1016790A-induced ERK1/2 phosphorylation: intraperitoneal pretreatment one hour before GSK1016790A, skin harvested 15 min after
Method: as §1
(§2) Dorsal skin samples were fixed overnight at 4° C. in Zamboni's fixative (2% paraformaldehyde, 15% [v/v] saturated picric acid, 0.1-M PB, pH 7.3), dehydrated in ethanol, embedded in paraffin and sectioned at 10 μm. Haematoxylin and eosin (H&E) staining was performed according to standard protocols to analyze the hair follicle cycle stages as described, including the length of the hair follicle, the size, and location of dermal papilla and the position of the hair shaft and the inner root sheath (Muller-Rover et al., 2001). For immunofluorescence detection, sections were deparaffinized, rehydrated, and subjected to antigen retrieval in 10-mM citrate buffer (pH 6.0). […]
The skin was lysed in RIPA lysis and extraction buffer (Thermo Fisher Scientific, USA). Following cell protein quantitation, 10 μg of protein per sample were subjected to 12% SDS-PAGE. […]

hair follicles [4] = assay: Hair follicle regeneration / new hair growth after a single intradermal injection in telogen back skin; type: in vivo, mice
Method: (§3) The second telogen of C57BL/6J mice starts at day 49 after birth and it will last around 5 weeks (Muller-Rover et al., 2001). On day 48 after birth, the mice were shaved. On day 49 after birth, wt and Trpv4^−/− mice were intradermally injected with 30-μM GSK1016790A (GSK101, a selective TRPV4 agonist) (50 μl), which is diluted in saline from the 100 mM stock solution. GSK2193874 (GSK219, a selective TRPV4 antagonist) (25 mg·kg^−1, 200 μl dilution in saline from 50 mg·ml^−1 stock solution) (Thorneloe et al., 2012) or PD98059 (10 mg·kg^−1, 200 μl dilution in saline from 37.5 mg·ml^−1 stock solution) was applied through intraperitoneal injection on day 48 after birth or 1 hour prior to GSK1016790A injection. Insulin syringes with 30-G needle (UltiCare) were used for intradermal injection and 1-ml Sub-Q syringes with 26-G needle (BD) were used for intraperitoneal injection. Seventeen days after GSK1016790A injection, the mice were killed and the skin samples of the injection area were collected for analysis. In mice with newly generated hair, generally, there was a small patch of skin with dark color and longer hair shaft at the injection sites compared with that in the surrounding area.
Dorsal skin samples were fixed overnight at 4° C. in Zamboni's fixative (2% paraformaldehyde, 15% [v/v] saturated picric acid, 0.1-M PB, pH 7.3), dehydrated in ethanol, embedded in paraffin and sectioned at 10 μm. Haematoxylin and eosin (H&E) staining was performed according to standard protocols to analyze the hair follicle cycle stages as described, including the length of the hair follicle, the size, and location of dermal papilla and the position of the hair shaft and the inner root sheath (Muller-Rover et al., 2001). For immunofluorescence detection, sections were deparaffinized, rehydrated, and subjected to antigen retrieval in 10-mM citrate buffer (pH 6.0). After blocking, sections were stained with primary antibody against Ki67 (1:1,000; Thermo Fisher Scientific, Cat #PA1-29503, RRID: AB_1955602), phosphop-p44/42 MAPK (1:200; Cell Signaling Technology, Cat #4370S, RRID: AB_2315112), p44/42 MAPK (1:1,000; Cell Signaling Technology, Cat #4695, RRID: AB_390779), keratin 14 (1:1,000; BioLegend, […], RRID: AB_2616962) and keratin 15 (1:1,000; BioLegend, Cat #833901, RRID: AB_2564970) at 4° C. overnight in a humid chamber, followed by incubation for 1 h at room temperature (RT) with Cy3-conjugated secondary antibody (1:500; Jackson ImmunoResearch, Cat #111-005-003, RRID: AB_2337913) and Alexa Fluor 488-conjugated secondary antibody (1:500; Jackson ImmunoResearch, Cat #703-005-155, RRID: AB_2340346). Nuclei were stained with DAPI (SouthernBiotech). The Immuno-related procedures used comply with the recommendations made by the British Journal of Pharmacology Alexander et al., 2018.

[5] = tested on: Bmp6, Fgf18, Fgf7, Wnt16 and Nog mRNA; assay: Quantitative RT-PCR of whole skin lysates for anagen-inhibiting and anagen-promoting factors; type: in vivo, mice
Method: as §3
For real-time PCR, skin sample was collected 24 h after GSK1016790A injection. Total RNA was extracted from mouse skin tissue using RNeasy kit (Qiagen, Germantown, MD, […]) according to the manufacturer's instructions. RNA was treated with DNase I (Invitrogen, Carlsbad, CA, USA), and the cDNA was synthesized in vitro using ThermoScript® RT-PCR System kit (Invitrogen). Reactions were carried out in a volume of 20 μl per reaction containing 10-μl SYBR Green master mix (2×) (Roche, Indianapolis, IN, USA), 0.5-μl cDNA, 1.2-μl 5-μM primer mix, and 8.3-μl water using StepOnePlus real-time PCR system (Applied Biosystems, Foster City, CA, USA). Relative expression of genes was normalized to GAPDH and calculated using the 2^−ΔΔct methods.

[6] = tested on: human epidermal keratinocytes HaCaT cells; conditions: cited from earlier work
TRPV4 = biological target: T1, TRPV4 (Mus musculus, UniProt Q9EPK8); assay: Normal hair follicle cycling under pharmacological inhibition of TRPV4 (H&E of back skin); type: in vivo; conditions: Trpv4+/+ mice treated with GSK219
T1 construct: back skin sections from Trpv4^+/+ mice, Trpv4^+/+ mice treated with GSK219 and Trpv4^−/− mice; from tissue; host or cells: back skin of living wild-type C57BL/6J (Trpv4+/+) mice
T1 sequence (Q9EPK8 whole entry): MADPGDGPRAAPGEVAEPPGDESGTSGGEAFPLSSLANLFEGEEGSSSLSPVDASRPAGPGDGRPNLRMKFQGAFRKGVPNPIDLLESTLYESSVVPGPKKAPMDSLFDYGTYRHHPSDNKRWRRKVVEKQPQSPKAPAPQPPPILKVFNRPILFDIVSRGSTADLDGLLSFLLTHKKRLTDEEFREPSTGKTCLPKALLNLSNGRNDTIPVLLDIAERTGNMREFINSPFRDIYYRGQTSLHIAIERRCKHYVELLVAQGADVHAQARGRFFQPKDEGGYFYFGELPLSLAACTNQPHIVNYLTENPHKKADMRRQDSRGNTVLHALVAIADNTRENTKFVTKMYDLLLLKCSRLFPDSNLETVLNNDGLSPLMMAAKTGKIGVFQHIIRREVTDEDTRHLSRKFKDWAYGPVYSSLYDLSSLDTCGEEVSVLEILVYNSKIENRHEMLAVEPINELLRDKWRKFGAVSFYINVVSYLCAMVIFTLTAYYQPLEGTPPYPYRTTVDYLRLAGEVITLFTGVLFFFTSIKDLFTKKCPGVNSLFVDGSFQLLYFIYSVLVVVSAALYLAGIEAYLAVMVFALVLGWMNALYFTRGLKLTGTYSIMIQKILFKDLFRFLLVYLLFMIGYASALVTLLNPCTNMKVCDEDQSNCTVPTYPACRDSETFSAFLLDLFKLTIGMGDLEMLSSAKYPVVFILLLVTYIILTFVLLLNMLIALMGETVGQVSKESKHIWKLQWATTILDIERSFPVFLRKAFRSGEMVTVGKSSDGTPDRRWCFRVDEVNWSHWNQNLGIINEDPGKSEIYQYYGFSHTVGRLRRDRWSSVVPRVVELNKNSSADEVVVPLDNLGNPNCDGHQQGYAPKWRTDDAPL
Method: FIG. 6. Top: hair growth cycle in mice. Bottom: representative images of hematoxylin and eosin (H&E) staining of back skin sections from Trpv4^+/+ mice, Trpv4^+/+ mice treated with GSK219 and Trpv4^−/− mice on Day 15, 21, 36, 40, 49. Scale bar=100 μm.
as §2

[7] = Cre+ K14Cre, Trpv4f/f mice vs wt
[8] = Cre+ K14Cre, Trpv4f/f mice, after injection
[9] = Trpv4+/+ mice, whole skin, 24 h after injection

CC(C)C[C@H](NC(=O)c1cc2ccccc2s1)C(=O)N1CCN(C(=O)[C@H](CO)NS(=O)(=O)c2ccc(Cl)cc2Cl)CC1 [GSK1016790A, N-((1S)-1-{[4-((2S)-2-{[(2,4-dichlorophenyl)sulfonyl]amino}-3-hydroxypropanoyl)-1-piperazinyl]carbonyl}-3-methylbutyl)-1-benzothiophene-2-carboxamide]
hair growth after topical application (hair follicles [1]; 100 μM applied once, tape stripping of shaved back, day 12, vs vehicle): facilitate hair growth; also recorded: increased hair growth
hair growth effect of topical application under genetic ablation of TRPV4 function (hair follicles [1]; TRPV4 ablated mice, tape stripping): removed
number of apoptotic cells [2]: increased
ratio of proliferating cells [2]: decreased
number of Ki67-positive K14-expressing hair follicle keratinocytes [3]: significantly increased; also recorded: increase
number of Ki67-positive K15-expressing hair follicle stem cells in the bulge [3]: increased number; also recorded: increase
ERK1/2 phosphorylation (ERK1/2; 15 min after a single intradermal injection, skin at injection site): significantly increased
new hair growth (newly generated hair coat) at the injection site (hair follicles [4]; 7-week-old wt (Trpv4+/+) mice, single intradermal injection (30 μM, 50 μl), 17 days after injection, vs vehicle): newly generated hair coat could be clearly observed at the injection site in a dose-dependent manner; also recorded: persistently induced hair growth
hair regeneration in macrophage-specific TRPV4 conditional KO mice (hair follicles [4]; Cx3cr1Cre, Trpv4f/f mice vs Cre− wt littermates, single intradermal injection): comparable hair regeneration
hair regeneration in keratinocyte-specific TRPV4 conditional KO mice (hair follicles [4]; K14Cre, Trpv4f/f mice, single intradermal injection): completely absent
GSK1016790A-induced hair regeneration in global TRPV4 KO mice (hair follicles [4]; Trpv4−/− mice, single intradermal injection): completely absent
hair follicle elongation (hair follicle length) (hair follicles [4]; wt mice, single intradermal injection, H&E of back skin, vs vehicle): more than fourfold
hair cycle stage of hair follicles (hair follicles [4]; wt mice, single intradermal injection, vehicle: telogen or anagen I): most of the hair follicles had entered anagen Ill-VI phases
Bmp6 mRNA expression level ([5]; Cre+ K14Cre, Trpv4f/f mice): did not affect
Fgf18 mRNA expression level ([5]; Cre+ K14Cre, Trpv4f/f mice): did not affect
Fgf7 expression compared with wt mice injected with GSK1016790A [5, 7]: significantly decreased
Nog expression compared with wt mice injected with GSK1016790A [5, 7]: significantly decreased
Wnt16 expression compared with wt mice injected with GSK1016790A [5, 7]: significantly decreased
Fgf7 expression [5, 8]: still increased
Nog expression [5, 8]: still increased
Wnt16 expression [5, 8]: still increased
Bmp6 mRNA transcripts [5, 9]: significant decrease
Fgf7 mRNA transcripts [5, 9]: markedly increased
Fgf18 mRNA transcripts [5, 9]: significant decrease
Nog mRNA transcripts [5, 9]: markedly increased
Wnt16 mRNA transcripts [5, 9]: markedly increased
GSK1016790A-induced changes in Bmp6, Fgf18, Fgf7, Wnt16 and Nog expression under genetic ablation of TRPV4 ([5]; Trpv4−/− mice, 30 μM intradermal, 24 h): significantly attenuated
membrane currents ([6]; HaCaT cells (PMID: 29293584)): activated membrane currents
IL-6 production ([6]; HaCaT cells (PMID: 30022772)): induced
IL-8 production ([6]; HaCaT cells (PMID: 30022772)): induced

O=C(NC1(c2ccccc2)CC1)c1c(CN2CCC(N3CCCCC3)CC2)c(-c2cccc(C(F)(F)F)c2)nc2cc(Br)ccc12 [GSK2193874]
normal transition of first telogen to second anagen (TRPV4): no effect
effect of pretreatment on GSK1016790A-induced ERK1/2 phosphorylation (ERK1/2): severely attenuated
effect of pretreatment on GSK1016790A-induced hair regeneration (hair follicles [4]; GSK2193874 25 mg·kg−1 intraperitoneal pretreatment, wt mice): completely abolished
effect of pretreatment on GSK1016790A-induced changes in Bmp6, Fgf18, Fgf7, Wnt16 and Nog expression ([5]; GSK2193874 pretreatment, Trpv4+/+ mice): significantly attenuated

COc1cccc(-c2cc(=O)c3ccccc3o2)c1N [PD98059]
effect of pretreatment on GSK1016790A-induced ERK1/2 phosphorylation (ERK1/2): severely attenuated
hair growth after GSK1016790A injection in pretreated mice (hair follicles [4]; PD98059 10 mg·kg−1 intraperitoneal pretreatment, 17 days after GSK1016790A injection): completely absent
effect of pretreatment on GSK1016790A-induced decrease of Bmp6 and Fgf18 and increase of Fgf7, Wnt16 and Nog expression ([5]; PD98059 pretreatment vs vehicle control): completely reversed
